ChEMBL document CHEMBL4422665, “Design, synthesis and algicides activities of thiourea derivatives as the novel scaffold aldolase inhibitors” (Bioorg Med Chem, 2019)
In brackets after ≈: the same amount, converted by molar mass.

How the values were obtained:
[1] = Solubility of the compound; type: physicochemical
[2] = Lipophilicity, log P of the compound; type: physicochemical; settings: octanol/water
[3] = molecular target: T1, Fructose-bisphosphate aldolase class 2 (Synechocystis sp. (strain PCC 6803 / Kazusa), UniProt Q55664); experiment: (§1) Inhibition of recombinant Synechocystis sp. PCC 6803 FBA2 expressed in Escherichia coli BL21 (DE3) using FBP as substrate measured over 5 mins
T1 sequence (Q55664 whole entry): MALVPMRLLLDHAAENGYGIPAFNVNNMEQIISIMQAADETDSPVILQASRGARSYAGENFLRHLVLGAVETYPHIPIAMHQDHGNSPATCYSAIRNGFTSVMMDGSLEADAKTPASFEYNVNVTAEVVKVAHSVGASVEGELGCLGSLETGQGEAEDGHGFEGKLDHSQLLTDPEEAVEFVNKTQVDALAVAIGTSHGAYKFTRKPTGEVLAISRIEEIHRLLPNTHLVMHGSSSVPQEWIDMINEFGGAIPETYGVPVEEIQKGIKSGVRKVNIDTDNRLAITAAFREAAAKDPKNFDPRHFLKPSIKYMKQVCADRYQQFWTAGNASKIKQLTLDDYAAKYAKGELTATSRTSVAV

[4] = molecular target: Fructose-bisphosphate aldolase class 2 (Synechocystis sp. (strain PCC 6803 / Kazusa), UniProt Q55664, R51A); experiment: Inhibition of recombinant Synechocystis sp. PCC 6803 FBA2 R51A mutant expressed in Escherichia coli BL21 (DE3) using FBP as substrate measured over 5 mins
Chain of Fructose-bisphosphate aldolase class 2 (Synechocystis sp. (strain PCC 6803 / Kazusa), UniProt Q55664, R51A) (Q55664 2-359 R51A limits assumed): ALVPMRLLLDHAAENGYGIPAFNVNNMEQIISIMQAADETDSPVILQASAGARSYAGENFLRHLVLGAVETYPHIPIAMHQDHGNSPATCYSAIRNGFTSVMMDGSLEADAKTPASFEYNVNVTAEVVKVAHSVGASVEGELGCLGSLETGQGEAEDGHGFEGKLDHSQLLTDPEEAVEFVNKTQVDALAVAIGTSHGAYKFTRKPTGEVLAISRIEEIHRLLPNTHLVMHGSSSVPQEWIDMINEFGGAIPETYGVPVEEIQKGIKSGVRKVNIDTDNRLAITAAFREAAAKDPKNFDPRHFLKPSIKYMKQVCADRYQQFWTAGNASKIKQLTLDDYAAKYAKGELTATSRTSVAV

[5] = test system: Synechocystis sp. PCC 6803; experiment: Selectivity ratio of Ki for recombinant Synechocystis sp. PCC 6803 FBA2 D277A mutant expressed in Escherichia coli BL21 (DE3) to Ki for recombinant Synechocystis sp. PCC 6803 FBA2 expressed in Escherichia coli BL21 (DE3)
[6] = test system: Synechocystis sp. PCC 6803; experiment: Selectivity ratio of Ki for recombinant Synechocystis sp. PCC 6803 FBA2 S55A mutant expressed in Escherichia coli BL21 (DE3) to Ki for recombinant Synechocystis sp. PCC 6803 FBA2 expressed in Escherichia coli BL21 (DE3)
[7] = test system: Synechocystis sp. PCC 6803; experiment: Selectivity ratio of Ki for recombinant Synechocystis sp. PCC 6803 FBA2 R51A mutant expressed in Escherichia coli BL21 (DE3) to Ki for recombinant Synechocystis sp. PCC 6803 FBA2 expressed in Escherichia coli BL21 (DE3)
[8] = test system: Synechocystis sp. PCC 6803; experiment: Selectivity ratio of Ki for recombinant Synechocystis sp. PCC 6803 FBA2 R302A mutant expressed in Escherichia coli BL21 (DE3) to Ki for recombinant Synechocystis sp. PCC 6803 FBA2 expressed in Escherichia coli BL21 (DE3)
[9] = molecular target: Fructose-bisphosphate aldolase class 2 (Synechocystis sp. (strain PCC 6803 / Kazusa), UniProt Q55664, D277A); experiment: Inhibition of recombinant Synechocystis sp. PCC 6803 FBA2 D277A mutant expressed in Escherichia coli BL21 (DE3) using FBP as substrate measured over 5 mins
Chain of Fructose-bisphosphate aldolase class 2 (Synechocystis sp. (strain PCC 6803 / Kazusa), UniProt Q55664, D277A) (Q55664 2-359 D277A limits assumed): as the sequence (Q55664 2-359 R51A limits assumed) above, with A50R, D276A counted along it

[10] = test system: Synechocystis sp. PCC 6803; experiment: Selectivity ratio of Ki for recombinant Synechocystis sp. PCC 6803 FBA2 T278A mutant expressed in Escherichia coli BL21 (DE3) to Ki for recombinant Synechocystis sp. PCC 6803 FBA2 expressed in Escherichia coli BL21 (DE3)
[11] = molecular target: Fructose-bisphosphate aldolase class 2 (Synechocystis sp. (strain PCC 6803 / Kazusa), UniProt Q55664, S55A); experiment: Inhibition of recombinant Synechocystis sp. PCC 6803 FBA2 S55A mutant expressed in Escherichia coli BL21 (DE3) using FBP as substrate measured over 5 mins
Chain of Fructose-bisphosphate aldolase class 2 (Synechocystis sp. (strain PCC 6803 / Kazusa), UniProt Q55664, S55A) (Q55664 2-359 S55A limits assumed): as the sequence (Q55664 2-359 R51A limits assumed) above, with A50R, S54A counted along it

[12] = molecular target: Fructose-bisphosphate aldolase class 2 (Synechocystis sp. (strain PCC 6803 / Kazusa), UniProt Q55664, N275A); experiment: Inhibition of recombinant Synechocystis sp. PCC 6803 FBA2 N275A mutant expressed in Escherichia coli BL21 (DE3) using FBP as substrate measured over 5 mins
Chain of Fructose-bisphosphate aldolase class 2 (Synechocystis sp. (strain PCC 6803 / Kazusa), UniProt Q55664, N275A) (Q55664 2-359 N275A limits assumed): as the sequence (Q55664 2-359 R51A limits assumed) above, with A50R, N274A counted along it

[13] = molecular target: Fructose-bisphosphate aldolase class 2 (Synechocystis sp. (strain PCC 6803 / Kazusa), UniProt Q55664, T278A); experiment: Inhibition of recombinant Synechocystis sp. PCC 6803 FBA2 T278A mutant expressed in Escherichia coli BL21 (DE3) using FBP as substrate measured over 5 mins
Chain of Fructose-bisphosphate aldolase class 2 (Synechocystis sp. (strain PCC 6803 / Kazusa), UniProt Q55664, T278A) (Q55664 2-359 T278A limits assumed): as the sequence (Q55664 2-359 R51A limits assumed) above, with A50R, T277A counted along it

[14] = molecular target: Fructose-bisphosphate aldolase class 2 (Synechocystis sp. (strain PCC 6803 / Kazusa), UniProt Q55664, R281A); experiment: Inhibition of recombinant Synechocystis sp. PCC 6803 FBA2 R281A mutant expressed in Escherichia coli BL21 (DE3) using FBP as substrate measured over 5 mins
Chain of Fructose-bisphosphate aldolase class 2 (Synechocystis sp. (strain PCC 6803 / Kazusa), UniProt Q55664, R281A) (Q55664 2-359 R281A limits assumed): as the sequence (Q55664 2-359 R51A limits assumed) above, with A50R, R280A counted along it

[15] = molecular target: Fructose-bisphosphate aldolase class 2 (Synechocystis sp. (strain PCC 6803 / Kazusa), UniProt Q55664, R302A); experiment: Inhibition of recombinant Synechocystis sp. PCC 6803 FBA2 R302A mutant expressed in Escherichia coli BL21 (DE3) using FBP as substrate measured over 5 mins
Chain of Fructose-bisphosphate aldolase class 2 (Synechocystis sp. (strain PCC 6803 / Kazusa), UniProt Q55664, R302A) (Q55664 2-359 R302A limits assumed): as the sequence (Q55664 2-359 R51A limits assumed) above, with A50R, R301A counted along it

[16] = molecular target: Fructose-bisphosphate aldolase class 2 (Synechocystis sp. (strain PCC 6803 / Kazusa), UniProt Q55664, S50A); experiment: Inhibition of recombinant Synechocystis sp. PCC 6803 FBA2 S50A mutant expressed in Escherichia coli BL21 (DE3) using FBP as substrate measured over 5 mins
Chain of Fructose-bisphosphate aldolase class 2 (Synechocystis sp. (strain PCC 6803 / Kazusa), UniProt Q55664, S50A) (Q55664 2-359 S50A limits assumed): as the sequence (Q55664 2-359 R51A limits assumed) above, with S49A, A50R counted along it

[17] = test system: Synechocystis sp. PCC 6803; experiment: Selectivity ratio of Ki for recombinant Synechocystis sp. PCC 6803 FBA2 N275A mutant expressed in Escherichia coli BL21 (DE3) to Ki for recombinant Synechocystis sp. PCC 6803 FBA2 expressed in Escherichia coli BL21 (DE3)
[18] = test system: Synechocystis sp. PCC 6803; experiment: Selectivity ratio of Ki for recombinant Synechocystis sp. PCC 6803 FBA2 R281A mutant expressed in Escherichia coli BL21 (DE3) to Ki for recombinant Synechocystis sp. PCC 6803 FBA2 expressed in Escherichia coli BL21 (DE3)
[19] = test system: Synechocystis sp. PCC 6803; experiment: Selectivity ratio of Ki for recombinant Synechocystis sp. PCC 6803 FBA2 S50A mutant expressed in Escherichia coli BL21 (DE3) to Ki for recombinant Synechocystis sp. PCC 6803 FBA2 expressed in Escherichia coli BL21 (DE3)
[20] = test system: Synechocystis sp. PCC 6803; experiment: Algicidal activity against wild-type Synechocystis sp. PCC 6803 after 24 hrs by microbroth dilution method; type: functional, organism-based
[21] = test system: Synechocystis sp. PCC 6803; experiment: Algicidal activity against FBA2 over-expressing Synechocystis sp. PCC 6803 after 24 hrs by microbroth dilution method; type: functional, organism-based; settings: Synechocystis sp. PCC 6803, 24 h
[22] = test system: Synechocystis sp. PCC 6803; experiment: Selectivity ratio of EC50 for FBA2 over-expressing Synechocystis sp. PCC 6803 to EC50 for wild-type Synechocystis sp. PCC 6803; type: functional
[23] = molecular target: T2, Fructose-bisphosphate aldolase class 2 (Synechocystis sp. (strain PCC 6803 / Kazusa)) (UniProt Q55664); experiment: as §1; design: concentration or dose not given beside the values
T2 sequence (whole entry): T1 sequence (Q55664 whole entry)

[24] = Synechocystis sp. PCC 6803, 24 h, read-out: EC50

c1ccc(-n2c(-n3cnc4ncncc43)nc3cncnc32)cc1
solubility [1]: 290 µg/mL (≈ 923 µM) | logP [2]: 0.99

O=C(NC(=S)Nc1cc([N+](=O)[O-])ccc1O)c1ccc(Cl)cc1
Ki [3]: 9.1 µM

Oc1cccc(COC2CC[C@@H](O)C(Cc3ccccc3)O2)c1 (stereo not given in full)
solubility [1]: 200 µg/mL (≈ 636 µM) | logP [2]: 3.32

O=CNC(=S)Nc1c(O)cc([N+](=O)[O-])cc1-c1ccccc1
solubility [1]: 160 µg/mL (≈ 504 µM) | logP [2]: 2.48

O=C(NC(=S)Nc1ccc([N+](=O)[O-])cc1O)c1ccc([N+](=O)[O-])cc1
Ki [4]: 3.3 µM | Ratio Ki [5]: 2.4 | Ratio Ki [6]: 2.1 | Ratio Ki [7]: 1.7 | Ratio Ki [8]: 12.9 | Ki [9]: 4.6 µM | Ratio Ki [10]: 46.3 | Ki [11]: 3.4 µM | Ki [12]: 37.9 µM | Ki [13]: 87.5 µM | Ki [14]: 144 µM | Ki [15]: 24.4 µM | Ki [16]: 3.9 µM | Ratio Ki [17]: 20 | Ratio Ki [18]: 76 | Ratio Ki [19]: 2.1 | Ki [3]: 1.9 µM

O[C@H]1CO[C@@H](O)C(c2nc3ncncc3n2-c2ccccc2)C1 (stereo not given in full)
solubility [1]: 440 µg/mL (≈ 1410 µM) | logP [2]: 0.82

O=C(NNC(=S)NC(=O)c1ccccc1)c1cccc([N+](=O)[O-])c1
EC50 [20]: 0.39 ppm | Ki [3]: 1.87 µM

O=C(NC(=S)NNC(=O)c1ccccc1O)c1ccc(Cl)cc1
EC50 [20]: 0.98 ppm | Ki [3]: 0.63 µM

O=C(NC(=S)NNC(=O)c1ccccc1O)c1ccccc1
Ki [4]: 3.9 µM | Ratio Ki [5]: 11 | Ratio Ki [6]: 1.5 | Ratio Ki [7]: 6 | Ratio Ki [8]: 31 | Ki [9]: 7.2 µM | Ratio Ki [10]: 6.6 | Ki [11]: 1 µM | EC50 [20, 24]: 0.28 µM | Ki [12]: 15.9 µM | Ki [13]: 4.3 µM | Ki [14]: 52.3 µM | Ki [15]: 20.4 µM | Ki [16]: 15.2 µM | Ratio Ki [17]: 24.5 | Ratio Ki [18]: 80.5 | EC50 [21]: 4.98 µM | Ratio Ki [19]: 23.4 | Ki [3]: 0.65 to 0.7 µM | Ratio EC50 [22]: 18

O=C(NC(=S)NNC(=O)c1ccccc1O)c1ccc(F)cc1
EC50 [20, 24]: 0.88 µM | Ki [3]: 0.88 µM

Cc1ccc(C(=O)NC(=S)Nc2ccc([N+](=O)[O-])cc2O)cc1
Ki [3]: 5.5 µM

N[C@@H](Cc1ccc(O)cc1-c1ccccc1)c1ccccc1O
solubility [1]: 6350 µg/mL (≈ 20800 µM) | logP [2]: 3.23

O=C(NC(=S)Nc1ccc(O)cc1)c1ccccc1
inhibition [23]: 22%

O=C(NC(=S)Nc1ccccc1Cl)c1ccccc1
inhibition [23]: 30%

CCNCCc1ccccc1-c1ccccc1
solubility [1]: 8350 µg/mL (≈ 37100 µM) | logP [2]: 4

O=C(NNC(=S)NC(=O)c1ccccc1)c1ccc(Br)cc1
EC50 [20]: 1.58 ppm | Ki [3]: 5.2 µM

O=C(NC(=S)Nc1ccc([N+](=O)[O-])cc1)c1ccccc1
inhibition [23]: 60%

O=C(NC(=S)Nc1ccc([N+](=O)[O-])cc1O)c1ccc(C(F)(F)F)cc1
Ki [3]: 5.5 µM

O[C@@H]1CC[C@@](O)(n2c(-c3ccccc3)nc3ncncc32)OC1
solubility [1]: 730 µg/mL (≈ 2340 µM) | logP [2]: 0.94

O=C(NC(=S)Nc1ccccc1O)c1ccccc1
inhibition [23]: 37%

O=C(NC(=S)Nc1ccc([N+](=O)[O-])cc1O)c1ccccc1
solubility [1]: 180 µg/mL (≈ 567 µM) | logP [2]: 2.6 | Ki [3]: 16.7 µM

O=C(NC(=S)Nc1cc([N+](=O)[O-])ccc1O)c1ccccc1
Ki [3]: 9.1 µM

O=C(NNC(=S)NC(=O)c1ccccc1)c1ccc([N+](=O)[O-])cc1
EC50 [20, 24]: 2.7 µM | Ki [3]: 2.8 µM

O=C(NNC(=S)NC(=O)c1ccccc1)c1cccc(Br)c1
EC50 [20]: 5.9 ppm | Ki [3]: 3.1 µM

O=C(NC(=S)Nc1ccc(Br)cc1)c1ccccc1
inhibition [23]: 42%

O=C(NC(=S)Nc1ccccc1[N+](=O)[O-])c1ccccc1
inhibition [23]: 15%

O=C(NC(=S)Nc1ccc([N+](=O)[O-])cc1O)c1ccc(-c2ccccc2)cc1
Ki [3]: 2.5 µM

O=CNC(=S)Nc1cc(-c2ccccc2)c([N+](=O)[O-])cc1O
solubility [1]: 160 µg/mL (≈ 504 µM) | logP [2]: 2.45

O=C(NNC(=S)NC(=O)c1ccccc1)c1ccc(F)cc1
EC50 [20]: 8.2 ppm | Ki [3]: 3.5 µM

O=C(NC(=S)NNC(=O)c1ccc(O)cc1O)c1ccccc1
EC50 [20, 24]: 1.25 µM | Ki [3]: 1.25 µM

O=C(O)c1cccc([C@@H]2CCC[C@@H]2c2ncc3nc[nH]c3n2)c1
solubility [1]: 13100 µg/mL (≈ 42600 µM) | logP [2]: 2.96
